Values quoted from earlier work as cited in patent publication US20250241301A1, “COMPOSITIONS AND METHODS FOR INHIBITING PATHOGEN GROWTH ON PLANTS AND IMPROVING CROP SAFETY” (priority 2024, published 2025).

Tested on: potatoes
Conditions: T2H applied alone; cited from earlier work

CCC/C=C/C=O [T2H, trans-2-hexenal]
skin pitting/lesion damage to potatoes: skin pitting/lesion damage
